Data on seven molecules can be found in ChEMBL document CHEMBL1126105, “Dihydroxynitrobenzaldehydes and hydroxymethoxynitrobenzaldehydes: synthesis and biological activity as catechol-O-methyltransferase inhibitors” (J Med Chem, 1992).

pIC50, pKi: −log10 of the molar value.

By pIC50 is commonly meant the negative decadic logarithm of the IC50, by convention in mol/L. Read a low pIC50 as a large IC50. In general, pKi refers to −log10 of the Ki, conventionally taken in molar units. Low values mean a large Ki, high ones a small Ki.

For experiment [1], the target named is T1, Catechol O-methyltransferase (Sus scrofa, UniProt Q99028).
T1 sequence (Q99028 whole entry): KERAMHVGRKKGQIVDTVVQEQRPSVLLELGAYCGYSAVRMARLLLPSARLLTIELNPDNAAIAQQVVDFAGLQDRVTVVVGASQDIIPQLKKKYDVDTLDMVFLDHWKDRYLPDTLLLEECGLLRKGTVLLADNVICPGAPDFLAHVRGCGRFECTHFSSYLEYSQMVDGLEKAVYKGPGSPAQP
In words: In vitro inhibition of Catechol-O-methyltransferase (COMT) from isolated partially purified pig liver enzyme.

The target in experiment [2] is T2, Catechol O-methyltransferase (Sus scrofa) (UniProt Q99028).
T2 sequence (whole entry): T1 sequence (Q99028 whole entry)
Description: (§1) Compound was evaluated for reversible inhibition of Catechol O-methyltransferase with saturating AdoMet and variable catechol as substrate (mixed inhibition)

Experiment [3] has as its target T2, Catechol O-methyltransferase (Sus scrofa). The source holds these as a separate data set.
Description: as §1
Experiment [4] has the same target. In words: Compound was evaluated for reversible inhibition of Catechol O-methyltransferase with variable AdoMet and saturating catechol as substrate (uncompetitive inhibition).
Experiment [5] shares this target. The source holds these as a separate data set.
For experiment [6] the target is unchanged. Kind of experiment: Compound was evaluated for reversible inhibition of COMT with saturating AdoMet and variable catechol as substrate (mixed inhibition).
Experiment [7] addresses T1, Catechol O-methyltransferase. Kind of experiment: Compound was evaluated for reversible inhibition of Catechol O-methyltransferase with saturating AdoMet and variable catechol as substrate (Non-competitive inhibition).
Experiment [8] has the same target. Kind of experiment: Compound was evaluated for reversible inhibition of Catechol O-methyltransferase with variable AdoMet and saturating catechol as substrate (uncompetitive inhibition).

Molecule `O=Cc1c([N+](=O)[O-])ccc(O)c1O` showed a pIC50 in experiment [1] of 5.00. In experiment [2], this molecule showed a KII of 909 nM. For the same molecule, the KIs in experiment [3] is 4.77 µM.
Consider `O=Cc1cc(O)c(O)cc1[N+](=O)[O-]`, for which the pIC50 in experiment [1] was 5.07. Further, the KII in experiment [2] was found to be 921 nM. Further, the KIs in experiment [3] was found to be 2.69 µM.
As to `O=Cc1cc([N+](=O)[O-])cc(O)c1O`, the KIs in experiment [4] turned out to be 7770 nM; in experiment [3], 1.2 µM. For the same molecule, the pIC50 in experiment [1] is 5.68. The KII in experiment [2] was determined as 231 nM.
For `O=Cc1cc(O)c(O)c([N+](=O)[O-])c1` [3,4-DIHYDROXY-5-NITROBENZALDEHYDE], the pIC50 in experiment [1] is 5.70. For the same molecule, the KII in experiment [2] amounted to 138 nM; in experiment [5] it was 1.38e-07 µM. For the same molecule, the KIs in experiment [3] came out at 0.816 µM.
Take `O=Cc1ccc([N+](=O)[O-])c(O)c1O`: the KIs was 538 nM in experiment [4] and 0.478 µM in experiment [3]. The pIC50 in experiment [1] is 5.82. The same molecule registered a KII in experiment [2] of 145 nM.
On to `O=Cc1ccc(O)c(O)c1[N+](=O)[O-]`, for which the figures for the KIs in experiment [4] and in experiment [3] were 678 nM and 0.497 µM, respectively. The same molecule gave a pIC50 in experiment [1] of 5.82. This molecule gave a KII in experiment [6] of 168 nM.
Take `COc1c(O)cc(C=O)cc1[N+](=O)[O-]`: the pKi in experiment [7] is 4.76; in experiment [8] it was 4.87. The molecule also showed a pIC50 in experiment [1] of 4.47.
